# Experimental data: ChEMBL document CHEMBL3272212, “Synthesis and antimineralocorticoid activities of some 6-substituted 7 alpha-carboalkoxy steroidal spirolactones” (1977)
# Experiments:
# Assay type in all cases: functional, Urine
# [1] = test system: Rattus norvegicus; assay: Inhibition of deoxycorticosterone acetate-induced urinary electrolyte effects in intragastrically dosed adrenalectomized rat assessed as increase in Na:K ratio
# [2] = test system: Rattus norvegicus; assay: Inhibition of deoxycorticosterone acetate-induced urinary electrolyte effects in sc dosed adrenalectomized rat assessed as increase in Na:K ratio
# [3] = test system: Rattus norvegicus; assay: Ratio of MED for Inhibition of deoxycorticosterone acetate-induced urinary electrolyte effects in intragastrically dosed adrenalectomized rat to MED for deoxycorticosterone acetate-induced urinary electrolyte effects in sc dosed adrenalectomized rat
SMILES,MED [1],MED [2],Ratio [3]
COC(=O)[C@H]1[C@@H]2[C@H](CC[C@@]3(C)[C@H]2CC[C@@]32CCC(=O)O2)[C@@]2(C)CCC(=O)C=C2[C@H]1C,>2.4 mg,0.47 mg,–
COC(=O)[C@H]1[C@@H]2[C@H](CC[C@@]3(C)[C@H]2CC[C@@]32CCC(=O)O2)[C@@]2(C)CCC(=O)C=C2[C@@H]1C,0.58 mg,0.2 mg,–
C=C1C2=CC(=O)CC[C@]2(C)[C@H]2CC[C@@]3(C)[C@@H](CC[C@@]34CCC(=O)O4)[C@@H]2[C@@H]1C(=O)OC,>2.4 mg,>2.4 mg,–
[2H][C@H]1C2=CC(=O)CC[C@]2(C)[C@H]2CC[C@@]3(C)[C@@H](CC[C@@]34CCC(=O)O4)[C@@H]2[C@@H]1C(=O)OC,1 mg,0.3 mg,–
CC(=O)S[C@@H]1CC2=CC(=O)CC[C@]2(C)[C@H]2CC[C@@]3(C)[C@@H](CC[C@@]34CCC(=O)O4)[C@H]12 [SPIRONOLACTONE],0.48 mg,0.33 mg,–
COC(=O)[C@H]1[C@@H]2[C@H](CC[C@@]3(C)[C@H]2CC[C@@]32CCC(=O)O2)[C@@]2(C)CCC(=O)C=C2[C@@H]1O,2.12 mg,0.42 mg,–
CC(C)OC(=O)[C@H]1[C@@H]2[C@H](CC[C@@]3(C)[C@H]2CC[C@@]32CCC(=O)O2)[C@@]2(C)CCC(=O)C=C2[C@@H]1O,1.81 mg,0.28 mg,6
COC(=O)[C@H]1[C@@H]2[C@H](CC[C@@]3(C)[C@H]2CC[C@@]32CCC(=O)O2)[C@@]2(C)CCC(=O)C=C2[C@@H]1Br,1.05 mg,0.58 mg,–
